How the values were obtained:
[1] = tested on: UV induced apoptosis in mouse skin; conditions: from cited literature; cited from earlier work
[2] = tested on: MMP-1 expression in human dermal fibroblasts (HDFs); test: MMP-1 expression by western blot of culture supernatants of UV-exposed human dermal fibroblasts pretreated with kinase inhibitors; type: cell-based; conditions: UVB 60 mJ/cm^2, medium collected 24 hours after exposure
Experimental: Human dermal fibroblasts AG04058 (Coriell Institute for Medical Research, Camden, N.J.) were cultured and maintained in MEM containing glucose (4.5 mg/ml), glutamine (2 mM), […], and 10% heat-inactivated fetal bovine serum. For cell transfection, Fugene 6 transfection kit (Roche, Germany) was used to deliver Syk cDNA and the Saint-Red siRNA delivery system (Synvolux Therapeutics B.V., The Netherlands) was chosen to transfect Syk siRNA and control siRNA (Santa Cruz Biotechnology Inc., Santa Cruz, Calif.) into the cells. Cells were exposed to UVB (312 nm) (60 mJ/cm^2) by a Stratalinker UV Crosslinker (Stratagene, La Jolla, Calif.). Cell supernatants were collected 24 hrs after UV exposure, and prepared for MMP-1 expression assay.
Twenty-four hours after UV exposure, the culture media of HDFs were collected for MMP-1 assay. Based on OD280 measurement, equal amounts of proteins from the supernatants were mixed with 2× sample buffer, boiled for 5 min and chilled on ice. Samples were then subjected to […] and electrophoretically transferred to nitrocellulose membrane. The membrane was blocked with 5% dry milk in washing buffer. MMP-1 was detected with anti-MMP-1 antibody, and the results were visualized by an ECL detection system. For Syk protein and MAPK activation western blot assays, cell pellets were lysed in 1× Triton X-100 lysis buffer (1% Triton X-100, 5 mmol/L Hepes—KOH, pH 7.4) in the presence of protease and phosphatase inhibitors containing 5 mM EGTA, 3 mM Na orthovanadate, 2 mM phenylmethylsulfonyl fluoride, and […] aprotinin and leupeptin (Sigma Chemical Co., St. Louis, Mo.). Following centrifugation at 12,000 rpm for 30 min at 4° C., the cleared lysates were subjected to the same procedure as that followed for MMP-1 assay. Syk protein and MAPK activation were detected with anti-Syk antibody and anti-phospho-MAPK antibodies, respectively, by western blot. For the activation of Syk kinase assay, briefly, cell lysates were precleared by incubation with protein G plus agarose (Santa Cruz Biotechnology, Inc.), and then incubated overnight at 4° C. with anti-Syk antibody. Immune complexes would bind to protein G plus agarose in the lysis buffer. The agarose beads were washed three times with lysis buffer and the adsorbed proteins were eluted into the sample buffer. Tyrosine phosphorylation of Syk kinase (Syk activation) was determined with anti-phosphotyrosine antibody by western blot.
Human fibroblast cells (AG04058) were seeded into 24-well tissue culture dishes with MEM medium one day before the assay. Specific inhibitors for each kinase were added into each different well as indicated (FIG. 4). […]
The dose-response of piceatannol inhibition was assessed in HDFs exposed to UVB (60 mJ/cm^2) (FIG. 9B).

SMILES	UV induced apoptosis in mouse skin, in words [1]	inhibition of MMP-1 expression (western blot, image-density analysis) ([2]; piceatannol 1 μg/ml)	inhibition of MMP-1 expression (western blot, image-density analysis) ([2]; piceatannol 5 μg/ml)	inhibition of MMP-1 expression (western blot, image-density analysis) ([2]; piceatannol 10 μg/ml) [%]	inhibition of MMP-1 expression (western blot, image-density analysis) ([2]; piceatannol 25 μg/ml) [%]
Oc1ccc(-c2nc(-c3ccncc3)c(-c3ccc(F)cc3)[nH]2)cc1 [SB202190]	blocked	–	–	–	–
Oc1cc(O)cc(/C=C/c2ccc(O)c(O)c2)c1 [piceatannol]	–	no inhibition	no inhibition	20	63

Reference: patent publication US9551710B2, “Signaling molecule involved in ultraviolet damage to skin” (Drexel University, priority 2010, dated 2017)
